Activity and IC50 data for three compounds are collected here from ChEMBL document CHEMBL3046077, “Synthesis and theoretic calculations of benzoxazoles and docking studies of their interactions with triosephosphate isomerase” (Med Chem Res, 2013).

Common to all, as to assay type: functional, organism-based
Experiment [1] deals with Trypanosoma cruzi. Briefly: Antitrypanosomal activity against trypomastigote form of Trypanosoma cruzi NINOA at 5 to 250 ug/ml after 24 hr by Neubauer counting method.
Experiment [2] concerns Trypanosoma cruzi. Briefly: Antitrypanosomal activity against trypomastigote form of Trypanosoma cruzi INC5 at 5 to 250 ug/ml after 24 hr by Neubauer counting method.
Experiment [3] relates to Trypanosoma cruzi. Briefly: Antitrypanosomal activity against trypomastigote form of Trypanosoma cruzi INC5 after 24 hr by Neubauer counting method. Conditions: INC5, 24 h.
The test system of experiment [4] is Trypanosoma cruzi. Briefly: Antitrypanosomal activity against trypomastigote form of Trypanosoma cruzi NINOA after 24 hr by Neubauer counting method.

Values after ≈ are worked out from the molar mass of the structure shown. Active and inactive are the calls of the source. The calls are words filed in the database; no cut-off is given here.

Take `O=C(O)/C=C/c1nc2ccccc2o1`: the result with Trypanosoma cruzi [1] and in the experiment with Trypanosoma cruzi [2] was Active.
`Cc1ccc2nc(/C=C/C(=O)O)oc2c1`: the IC50 is 421 µg/mL (≈ 2070 µM) in the experiment on Trypanosoma cruzi [3] and 266 µg/mL (≈ 1310 µM) in the experiment with Trypanosoma cruzi [4].
For the compound `O=C(Cn1ccnc1[N+](=O)[O-])NCc1ccccc1` [BENZNIDAZOLE], the results for the IC50 in the experiment on Trypanosoma cruzi [3] and in the experiment with Trypanosoma cruzi [4] were 205 µg/mL (≈ 786 µM) and 117 µg/mL (≈ 448 µM), respectively.

A word on the IC50: it is the concentration that gives 50% inhibition. Lower therefore signals higher potency.
